Laboratory results as given in ChEMBL document CHEMBL1147948, “Preparation of novel anthranilic acids as antibacterial agents: extensive evaluation of structural and physical properties on antibacterial activity and human serum albumin affinity” (Bioorg Med Chem Lett, 2007).
In brackets after ≈: the same amount, converted by molar mass.

What was measured:
Staphylococcus aureus [1] = assay: Ratio of MIC of Staphylococcus aureus UC 9218 in presence of 10% serum to MIC of Staphylococcus aureus UC 9218 in absence of serum; format: functional
Staphylococcus aureus [2] = assay: Antibacterial activity against Staphylococcus aureus UC 9218; format: functional
Staphylococcus aureus [3] = assay: Antibacterial activity against Staphylococcus aureus UC 9218 in presence of 10% human serum; format: functional
Albumin = Albumin (Homo sapiens, UniProt P02768); assay: Binding affinity to human serum albumin
Sequence of Albumin (P02768 whole entry): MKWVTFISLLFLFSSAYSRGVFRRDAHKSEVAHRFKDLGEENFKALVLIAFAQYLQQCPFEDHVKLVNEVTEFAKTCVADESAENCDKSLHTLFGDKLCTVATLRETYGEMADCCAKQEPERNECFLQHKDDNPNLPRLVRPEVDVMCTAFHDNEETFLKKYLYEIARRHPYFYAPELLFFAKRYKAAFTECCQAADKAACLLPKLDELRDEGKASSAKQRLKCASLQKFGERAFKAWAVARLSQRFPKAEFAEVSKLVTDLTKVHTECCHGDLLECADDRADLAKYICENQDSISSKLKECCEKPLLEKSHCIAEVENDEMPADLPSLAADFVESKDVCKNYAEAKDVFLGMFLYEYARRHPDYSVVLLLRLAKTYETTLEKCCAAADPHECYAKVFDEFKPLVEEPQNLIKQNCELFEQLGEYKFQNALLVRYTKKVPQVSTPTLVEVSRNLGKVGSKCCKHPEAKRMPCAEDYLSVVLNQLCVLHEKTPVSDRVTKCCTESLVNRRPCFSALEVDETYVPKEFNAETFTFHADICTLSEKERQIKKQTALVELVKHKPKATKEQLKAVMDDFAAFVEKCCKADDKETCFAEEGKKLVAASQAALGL

Staphylococcus aureus [4] = assay: Antibacterial activity against Staphylococcus aureus UC 9218 in presence of 5% human serum; format: functional

| SMILES | MIC (Staphylococcus aureus [2]) [µg/mL] | MIC (Staphylococcus aureus [3]) [µg/mL] | Kd (Albumin) [nM] | MIC (Staphylococcus aureus [4]) [µg/mL] | Ratio (Staphylococcus aureus [1]) |
| --- | --- | --- | --- | --- | --- |
| CSc1ccc(C(=O)Nc2ccc(C#N)cc2C(=O)O)cn1 | 32 (≈ 102 µM) | > 128 | – | – | 8 |
| COCCOCCCSc1ccc(C(=O)Nc2ccc(C#N)cc2C(=O)O)cn1 | 1 (≈ 2.41 µM) | 4 | 700 | – | 4 |
| CCCSc1ccc(C(=O)Nc2ccc(C#N)cc2C(=O)O)cn1 | 0.5 (≈ 1.46 µM) | 32 | – | – | 64 |
| CC(C)Sc1ccc(C(=O)Nc2ccc(Br)cc2C(=O)O)cn1 | 1 (≈ 2.53 µM) | 32 | – | – | 32 |
| O=C(Nc1ccc(Br)cc1C(=O)O)c1ccc(SC2CCOCC2)nc1 | 1 (≈ 2.29 µM) | 32 | – | – | 32 |
| N#Cc1ccc(NC(=O)c2ccc(SC3CCCCC3)nc2)c(C(=O)O)c1 | 0.5 (≈ 1.31 µM) | 32 | – | – | 64 |
| CCCCCCSc1ccc(C(=O)Nc2ccc(Cl)cc2C(=O)O)cn1 | – | 64 | – | – | 512 |
| CCCCCCSc1ccc(C(=O)Nc2ccc(Br)cc2C(=O)O)cn1 | – | 64 | – | – | 512 |
| O=C(Nc1ccc(Br)cc1C(=O)O)c1ccc(SC2CCCCC2)nc1 | 1 (≈ 2.3 µM) | 64 | – | – | 64 |
| CCC(CC)Sc1ccc(C(=O)Nc2ccc(C#N)cc2C(=O)O)cn1 | – | 8 | – | – | 32 |
| CC(C)(C)c1ccc(-c2cncc(C(=O)Nc3ccc(C#N)cc3C(=O)O)c2)cc1 | – | > 128 | – | > 128 | – |
| N#Cc1ccc(NC(=O)c2ccc(SC3CCCC3)nc2)c(C(=O)O)c1 | 0.5 (≈ 1.36 µM) | 16 | – | – | 32 |

The next lines start with results.

| MIC (Staphylococcus aureus [2]) [µg/mL] | MIC (Staphylococcus aureus [3]) [µg/mL] | Kd (Albumin) [nM] | MIC (Staphylococcus aureus [4]) [µg/mL] | SMILES | Ratio (Staphylococcus aureus [1]) |
| --- | --- | --- | --- | --- | --- |
| 1 (≈ 2.93 µM) | 16 | – | – | CC(C)Sc1ccc(C(=O)Nc2ccc(C#N)cc2C(=O)O)cn1 | 16 |
| 1 (≈ 2.35 µM) | > 128 | – | – | CCCCCCCCCSc1ccc(C(=O)Nc2ccc(C#N)cc2C(=O)O)cn1 | > 128 |
| – | 8 | – | – | CCCCCCSc1ccc(C(=O)Nc2ccc(C#N)cc2C(=O)O)cn1 | 64 |
| – | 16 | – | – | CCCCSc1ccc(C(=O)Nc2ccc(C#N)cc2C(=O)O)cn1 | 64 |
| – | 16 | – | – | CCCC(C)Sc1ccc(C(=O)Nc2ccc(C#N)cc2C(=O)O)cn1 (stereo not given) | 128 |
| – | 16 | – | – | CCCCC(C)Sc1ccc(C(=O)Nc2ccc(C#N)cc2C(=O)O)cn1 (stereo not given) | 128 |
| 0.5 (≈ 1.41 µM) | 8 | – | – | CC(C)CSc1ccc(C(=O)Nc2ccc(C#N)cc2C(=O)O)cn1 | 16 |
| – | 4 | – | – | N#Cc1ccc(NC(=O)c2ccc(SC3CCOCC3)nc2)c(C(=O)O)c1 | 32 |
| 0.5 (≈ 1.53 µM) | 8 | – | – | CCSc1ccc(C(=O)Nc2ccc(C#N)cc2C(=O)O)cn1 | 16 |
| 16 (≈ 27.2 µM) | > 128 | – | > 128 | CC(C)(C)c1ccc(-c2ccc(NC(=O)c3cccc(S(=O)(=O)N4CCc5cc(Cl)ccc54)c3)c(C(=O)O)c2)cc1 | – |
| – | 4 | – | – | CCCCCSc1ccc(C(=O)Nc2ccc(C#N)cc2C(=O)O)cn1 | 32 |
